What all share (assay type): cell-based
For one test, the target named is T1, human EGF-R (Homo sapiens, UniProt P00533).
T1 construct: expressed in transfected cells; host or cells: F/L-HERc: murine IL-3-dependent FDC-P1 cells infected with recombinant retrovirus (vector LXSN, packaging line GP+E86) carrying human EGF-R cDNA
In words: Inhibition of EGF-dependent proliferation of F/L-HERc cells. The following applies: EGF (20 ng/ml), 48 hours. From the text:
(§1) In this case, an interleukin-3 (IL-3)-dependent cell line of murine origin was used and was genetically modified in such a way that it expresses functional human EGF-R. Proliferation of these cells, which are called F/L-HERc, can therefore be stimulated either by murine IL-3 or by EGF (see von Ruden, T. et al. in EMBO J. 7, 2749-2756 (1988) and Pierce, J. H. et al. in Science 239, 628-631 (1988)).
(§2) The starting material for the F/L-HERc cells was the cell line FDC-P1,whose preparation has been described by Dexter, T. M. et al. in J. Exp. Med. 152, 1036-1047 (1980). However, it is also possible as an alternative to use other growth factor-dependent cells (see, for example, Pierce, J. H. et al. in Science 239, 628-631 (1988), Shibuya, H. et al. in Cell 70, 57-67 (1992) and Alexander, W. S. et al. in EMBO J. 10, 3683-3691 (1991)). Recombinant retroviruses as described in von Ruden, T. et al., EMBO J. 7, 2749-2756 (1988) were used for expression of the human EGF-R cDNA (see Ullrich, A. et al. in Nature 309, 418-425 (1984)) with the difference that the retroviral vector LXSN (see Miller, A. D. et al. in BioTechniques 7, 980-990 (1989)) was employed for expression of the EGF-R cDNA, and the line GP+E86 (see Markowitz, D. et al. in J. Virol. 62, 1120-1124 (1988)) was used as packaging cell.
(§3) The test was carried out as follows:
(§4) F/L-HERc cells were cultivated in RPMI/1640 medium (BioWhittaker), supplemented with 10% fetal calf serum (FCS, Boehringer Mannheim), 2 mM glutamine (BioWhittaker), standard antibiotics and 20 ng/ml human EGF (Promega), at 37° C. and 5% CO2. To investigate the inhibitory activity of the compounds according to the invention, 1.5×10^4 cells were cultivated in the above medium (200 μl) per well in triplicates in 96-well plates, stimulating proliferation of the cells either with EGF (20 ng/ml) or with murine IL-3. The source used for IL-3 was culture supernatants from the cell line X63/0 mIL-3 (see Karasuyama, H. et al. in Eur. J. Immunol. 18, 97-104 (1988)). The compounds according to the invention were dissolved in 100% dimethyl sulphoxide (DMSO) and added in various dilutions to the cultures, with the maximum DMSO concentration being 1%. The cultures were incubated at 37° C. for 48 hours.
(§5) To determine the inhibitory activity of the compounds according to the invention, the relative cell count was measured in O.D. units using the Cell Titre 96™ AQueous Non-Radioactive Cell Proliferation Assay (Promega). The relative cell count was calculated as a per cent of the control (F/L-HERc cells without inhibitor), and the concentration of active substance which inhibits the proliferation of the cells by 50% (IC50) was inferred.

A further test concerns F/L-HERc cells. In words: Inhibition of IL-3-dependent proliferation of F/L-HERc cells. The conditions noted are these: Mus musculus, murine IL-3, 48 hours.
Source text: as §1, §2, §3, §4, §5

Test [1] deals with human tumour cell line KB. In words: Inhibition of EGF/TGF-alpha-stimulated KB cell proliferation ([3H]-thymidine incorporation). The following applies: KB cells, TGF-alpha [10 ng/ml] or EGF [20 ng/ml], 60 hours, then [3H]-thymidine 16-18 h. As to the method: To do this, the cells were washed twice and 1500 cells per well were plated out in a 96-well plate in 200 μl of IMDM (BioWhittaker) without serum in the presence of 50 μM mercaptoethanol, standard antibiotics, TGF-alpha [10 ng/ml] or EGF [20 ng/ml] and of various concentrations of the substances according to the invention (triplicates, maximum DMSO concentration 1%, see proliferation test with F/L-HERc cells). After 60 hours, [^3 H]-thymidine (0.1 μCi in 10 μl) was added for about 16-18 h.

Some results are limits rather than exact numbers.

T1 sequence (P00533 25-1210): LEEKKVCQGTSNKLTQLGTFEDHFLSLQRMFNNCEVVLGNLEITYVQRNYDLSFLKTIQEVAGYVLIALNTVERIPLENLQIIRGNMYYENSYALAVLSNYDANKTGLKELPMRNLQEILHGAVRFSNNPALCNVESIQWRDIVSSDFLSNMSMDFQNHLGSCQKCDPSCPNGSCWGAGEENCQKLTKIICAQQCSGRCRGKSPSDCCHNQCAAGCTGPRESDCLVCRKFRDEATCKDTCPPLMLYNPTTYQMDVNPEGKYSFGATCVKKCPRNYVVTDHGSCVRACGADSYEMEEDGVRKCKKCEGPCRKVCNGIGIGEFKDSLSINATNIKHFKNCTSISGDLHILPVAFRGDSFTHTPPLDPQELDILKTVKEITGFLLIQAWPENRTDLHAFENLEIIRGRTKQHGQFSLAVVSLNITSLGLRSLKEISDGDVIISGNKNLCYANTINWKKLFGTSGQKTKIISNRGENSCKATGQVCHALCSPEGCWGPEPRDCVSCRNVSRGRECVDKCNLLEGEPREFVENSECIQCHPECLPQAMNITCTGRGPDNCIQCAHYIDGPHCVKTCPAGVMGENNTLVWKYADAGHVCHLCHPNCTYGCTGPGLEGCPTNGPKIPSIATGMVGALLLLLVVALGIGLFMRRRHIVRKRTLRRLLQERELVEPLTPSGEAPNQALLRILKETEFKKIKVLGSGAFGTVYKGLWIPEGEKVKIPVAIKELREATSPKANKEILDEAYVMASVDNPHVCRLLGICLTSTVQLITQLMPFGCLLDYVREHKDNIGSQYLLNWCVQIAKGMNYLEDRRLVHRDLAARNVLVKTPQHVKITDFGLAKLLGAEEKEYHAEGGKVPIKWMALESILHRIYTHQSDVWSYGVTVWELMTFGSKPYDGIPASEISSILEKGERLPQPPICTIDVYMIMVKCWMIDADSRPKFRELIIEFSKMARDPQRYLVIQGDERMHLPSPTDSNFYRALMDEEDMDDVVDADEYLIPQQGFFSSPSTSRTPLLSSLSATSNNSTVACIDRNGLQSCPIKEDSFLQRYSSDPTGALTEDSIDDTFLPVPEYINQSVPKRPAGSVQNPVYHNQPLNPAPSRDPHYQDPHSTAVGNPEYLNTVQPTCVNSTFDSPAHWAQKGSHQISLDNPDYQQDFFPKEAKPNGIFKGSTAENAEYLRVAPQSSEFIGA

As for `c1cc(Nc2ncnc3cnc(N4CCOCC4)nc23)c2cccnc2c1` [1(1), 4-(5-quinolylamino)-6-morpholinopyrimido[5,4-d]pyrimidine], the IC50 worked out at 2000 nM against human EGF-R and 10000 nM with F/L-HERc cells.

Consider `c1cnc2ccc(Nc3ncnc4cnc(N5CCOCC5)nc34)cc2c1` [1(2), 4-(6-quinolylamino)-6-morpholinopyrimido[5,4-d]pyrimidine], for which the IC50 against human EGF-R stood at 1000 nM.

`c1cnc2c(Nc3ncnc4cnc(N5CCOCC5)nc34)cccc2c1` [1(3), 4-(8-quinolylamino)-6-morpholinopyrimido[5,4-d]pyrimidine]: the IC50 on human EGF-R is 800 nM.

Take `c1nc(Nc2ccc3[nH]ncc3c2)c2nc(N3CCOCC3)ncc2n1` [1(4), 4-(5-indazolylamino)-6-morpholinopyrimido[5,4-d]pyrimidine]: on human EGF-R, 125 nM corresponded to half-maximal inhibition (IC50).

As for `c1cc(Nc2ncnc3cnc(N4CCOCC4)nc23)c2nsnc2c1` [1(5), 4-[4-(2,1,3-benzothiadiazolyl)amino]-6-morpholinopyrimido[5,4-d]pyrimidine], half-maximal inhibition against human EGF-R (IC50) required 1000 nM. Against the preceding molecule, the IC50 is about 8-fold higher.

For the molecule `c1cncc(Nc2ncnc3cnc(N4CCOCC4)nc23)c1` [1(9), 4-(3-pyridylamino)-6-morpholinopyrimido[5,4-d]pyrimidine], half-maximal inhibition on human EGF-R (IC50) was put at 6000 nM. Against the preceding molecule, the IC50 is about 6-fold higher.

On to `c1cc(Nc2ncnc3cnc(N4CCOCC4)nc23)ccn1` [1(13), 4-(4-pyridylamino)-6-morpholinopyrimido[5,4-d]pyrimidine], for which the IC50 against human EGF-R came out at 10000 nM; in the test with F/L-HERc cells it was 9000 nM.

For the molecule `c1cc2cc(Nc3ncnc4cnc(N5CCOCC5)nc34)ccc2cn1` [1(14), 4-(6-isoquinolylamino)-6-morpholinopyrimido[5,4-d]-pyrimidine], the figures for the IC50 against human EGF-R and with F/L-HERc cells were 2300 nM and 2200 nM, respectively.

`Clc1cccc(CNc2ncnc3cnc(N4CCOCC4)nc23)c1` [1(15), 4-(3-chlorobenzylamino)-6-morpholinopyrimido[5,4-d]-pyrimidine]: the IC50 against human EGF-R was 1 nM; in the test on F/L-HERc cells, greater than 10000 nM.

For the molecule `c1ccc2c(c1)CCC(Nc1ncnc3cnc(NC4CC4)nc13)C2` (stereo not shown) [1(16), 4-(1,2,3,4-tetrahydro-2-naphthylamino)-6-cyclopropylaminopyrimido[5,4-d]pyrimidine], on human EGF-R, 200 nM corresponded to half-maximal inhibition (IC50). This lies in the sub-micromolar range.

`O[C@H]1CC[C@H](Nc2ncc3ncnc(Nc4ccc5[nH]ccc5c4)c3n2)CC1` [2(1), 4-(5-indolylamino)-6-[trans-(4-hydroxycyclohexyl)amino]pyrimido[5,4-d]pyrimidine]: the concentration for half-maximal inhibition (IC50) against human EGF-R was 1 nM; with F/L-HERc cells it was greater than 10000 nM.

On to `Cc1cccc(Nc2ncnc3cnc(-n4ccnc4)nc23)c1` [2(2), 4-[(3-methylphenyl)amino]-6-(1-imidazolyl)pyrimido-[5,4-d]pyrimidine], for which the IC50 against human EGF-R came to 400 nM. This lies in the sub-micromolar range.

For `CN1CCC2(CC1)CN(c1ncc3ncnc(Nc4ccc(F)c(Cl)c4)c3n1)C2` [2(3), 4-[(3-chloro-4-fluorophenyl)amino]-6-(7-methyl-2,7-diazaspiro[3.5]-2-nonyl)pyrimido[5,4-d]pyrimidine], the IC50 was 138 nM against human EGF-R and greater than 10000 nM in the test on F/L-HERc cells.

As for `O=C(CN1CCN(c2ncc3ncnc(Nc4ccc(F)c(Cl)c4)c3n2)CC1)N1CCCC1` [2(4), 4-[(3-chloro-4-fluorophenyl)amino]-6-[4-(1-pyrrolidinylcarbonylmethyl)-1-piperazinyl]pyrimido[5,4-d]pyrimidine], the IC50 at human EGF-R is 200 nM; in the test on F/L-HERc cells, greater than 10000 nM.

As for `O=C(CN1CCN(c2ncc3ncnc(Nc4ccc(F)c(Cl)c4)c3n2)CC1)N1CCOCC1` [2(5), 4-[(3-chloro-4-fluorophenyl)amino]-6-[4-(morpholinocarbonylmethyl)-1-piperazinyl]pyrimido[5,4-d]pyrimidine], the figures for the IC50 against human EGF-R and in the test on F/L-HERc cells were 40 nM and greater than 10000 nM, respectively.

Regarding `Fc1ccc(Nc2ncnc3cnc(NCc4ccccn4)nc23)cc1Cl` [2(7), 4-[(3-chloro-4-fluorophenyl)amino]-6-(2-picolylamino)pyrimido[5,4-d]pyrimidine], the IC50 on human EGF-R was 175 nM; in the test with F/L-HERc cells, greater than 1000 nM.

`O=C(N1CCC(Nc2ncc3ncnc(Nc4ccc(F)c(Cl)c4)c3n2)CC1)C(F)(F)F` [2(8), 4-[(3-chloro-4-fluorophenyl)amino]-6-[1-trifluoroacetyl-4-piperidinylamino]pyrimido[5,4-d]pyrimidine]: the IC50 on human EGF-R was 15 nM; in the test with F/L-HERc cells, greater than 20000 nM.

`Fc1ccc(Nc2ncnc3cnc(N4CCC(c5ccncc5)CC4)nc23)cc1Cl` [2(9), 4-[(3-chloro-4-fluorophenyl)amino]-6-[4-(4-pyridyl)-1-piperidinyl]pyrimido[5,4-d]pyrimidine]: the IC50 at human EGF-R was 225 nM; in the test on F/L-HERc cells, greater than 20000 nM.

Turning to `Fc1ccc(Nc2ncnc3cnc(N4CCN(c5ccccn5)CC4)nc23)cc1Cl` [2(10), 4-[(3-chloro-4-fluorophenyl)amino]-6-[4-(2-pyridyl)-1-piperazinyl]pyrimido[5,4-d]pyrimidine], the IC50 against human EGF-R was 275 nM; in the test with F/L-HERc cells, greater than 20000 nM.

At human EGF-R, `NCc1cccc(CNc2ncc3ncnc(Nc4ccc(F)c(Cl)c4)c3n2)c1` [2(11), 4-[(3-chloro-4-fluorophenyl)amino]-6-[3-(aminomethyl)benzylamino]pyrimido[5,4-d]pyrimidine] had an IC50 of 190 nM.

As for `NCc1ccc(CNc2ncc3ncnc(Nc4ccc(F)c(Cl)c4)c3n2)cc1` [2(12), 4-[(3-chloro-4-fluorophenyl)amino]-6-[4-(aminomethyl)benzylamino]pyrimido[5,4-d]pyrimidine], the IC50 against human EGF-R came out at 98 nM.

As to `O[C@H]1CC[C@H](Nc2ncc3ncnc(Nc4ccc5c(c4)Cc4ccccc4-5)c3n2)CC1` [2(15), 4-[2-fluorenylamino]-6-(trans-4-hydroxycyclohexylamino)pyrimido[5,4-d]pyrimidine], the IC50 against human EGF-R is greater than 10000 nM.

Turning to `CN1[C@@H]2CC[C@H]1C[C@@H](Nc1ncc3ncnc(Nc4ccc(F)c(Cl)c4)c3n1)C2` [2(18), 4-[(3-chloro-4-fluorophenyl)amino]-6-(endo-tropinylamino)pyrimido[5,4-d]pyrimidine], the IC50 is 138 nM against human EGF-R and greater than 10000 nM with F/L-HERc cells.

With `CN1[C@@H]2CC[C@H]1C[C@H](Nc1ncc3ncnc(Nc4ccc(F)c(Cl)c4)c3n1)C2` [2(19), 4-[(3-chloro-4-fluorophenyl)amino]-6-(exo-tropinylamino)pyrimido[5,4-d]pyrimidine], the figures for the IC50 against human EGF-R and in the test with F/L-HERc cells were 28 nM and greater than 10000 nM, respectively.

Consider `c1nc(Nc2ccc3[nH]ccc3c2)c2nc(N3CCOCC3)ncc2n1` [Example 1, 4-(5-Indolylamino)-6-morpholinopyrimido[5,4-d]pyrimidine], for which the IC50 is 21 nM at human EGF-R and 10000 nM with F/L-HERc cells.

Consider `Fc1ccc(Nc2ncnc3cnc(NN4CCOCC4)nc23)cc1Cl` [Example 2(6), 4-[(3-chloro-4-fluorophenyl)amino]-6-[(4-morpholinyl)amino]pyrimido[5,4-d]pyrimidine], for which the IC50 against human EGF-R was 3 nM; in the test on F/L-HERc cells, greater than 10000 nM; in test [1], 100 nM.

Turning to `Fc1ccc(Nc2ncnc3cnc(NCc4ccncc4)nc23)cc1Cl` [Example 2, 4-[(3-Chloro-4-fluorophenyl)amino]-6-(4-picolylamino)pyrimido[5,4-d]pyrimidine], the IC50 on human EGF-R was 50 nM; in the test with F/L-HERc cells, greater than 1000 nM; in test [1], 400 nM.

Values taken from patent US5977102A, “Pyrimido [5, 4-d] pyrimidines, pharmaceuticals containing these compounds, their use and processes for their preparation” (Dr. Karl Thomae GmbH, priority 1996, dated 1999).
